Data set [1] concerns patients with PD and constipation. Briefly: Adverse events, Stage 2. Format: in vivo, human. Particulars: Stage 2, number of patients. As to the method: (§1) In Stage 2, 34 patients were evaluated.
Data set [2] shares this test system. Put plainly: Phase 2 trial Stage 2 (daily dosing): bowel function, stool related indices. Format: in vivo, human. As for the experimental part:
as §1
The primary efficacy outcome variable was whether or not a subject was a “success” or “failure”. This is an endpoint based on subject diary entries for the “fixed dose” period prior to the endpoint assessment defined as average complete stool frequency increase by 1 or more over baseline, or 3 or more complete spontaneous stools/week. The subject was deemed a “success” if s/he met one or more of the criteria listed above, otherwise the subject was deemed a “failure”. The primary analysis was based on all subjects with a baseline assessment and an assessment at the end of the “fixed-dose” period and was a comparison of the proportion of successes with 0.10 (the null hypothesis corresponding to no treatment effect).

Data set [3] deals with patients with PD. Briefly: CNS / neurological symptoms in Stage 2 (UPDRS, MMSE, PDHQ, BDI-II). Format: in vivo, human. Particulars: during treatment; patients with hallucinations (5) or delusions (1) at baseline. An excerpt:
Exploratory end-points, in addition to constipation, included for example, (i) depression assessed using the Beck Depression Inventory (BDI-II) (Steer et al. 2000) and Unified Parkinson's Disease Rating Scale (UPDRS); (ii) cognition assessed using the Mini Mental State Examination (MMSE) (Palsteia et al. 2018), Unified Parkinson's Disease Rating Scale (UPDRS), and Trail Making Test (TMT); (iii) sleep and REM-behavior disorder (RBD) using a daily sleep diary, I-Button Temperature Assessment, a REM sleep behavior disorder (RBD) questionnaire (RBDQ) (Stiasny-Kolster et al. 2007), and the UPDRS; (iv) hallucinations assessed using the PD hallucinations questionnaire (PDHQ) (Papapetropoulos et al. 2008), the UPDRS, and direct questioning; (v) fatigue using the Parkinson's Disease Fatigue Scale (PFS-16) and the UPDRS; (vi) motor functions using the UPDRS; and (vii) non-motor functions using the UPDRS.
Assessments were made at baseline and at the end of the fixed dose and washout periods. Circadian system status was evaluated by continuously monitoring wrist skin temperature (Thermochron iButton DS1921H; Maxim, Dallas) following published procedures (Sarabia et al. 2008). […]
CNS symptoms were evaluated at baseline and at the end of the fixed dose period and the wash-out period (Table 12). […]

Data set [4] deals with patients with PD. Briefly: Circadian rhythm of wrist skin temperature. Format: in vivo, human. The following applies: for circadian rhythm of wrist skin temperature (IS, IV, RA, CFI): fixed dose vs baseline, 12 evaluable patients. As for the experimental part: (6) I-Button Temperature Assessment. The I-Button is a small, rugged self-sufficient system that measures temperature and records the results in a protected memory section. The Thermochron I-Button DS1921H (Maxim Integrated, Dallas, Tex.) was used for skin temperature measurement. I-Buttons were programmed to sample every 10 mins., and attached to a double-sided cotton sport wrist band using Velcro, with the sensor face of the I-Button placed over the inside of the wrist, on the radial artery of the dominant hand. Subjects removed and replaced the data logger when necessary (i.e., to have a bath or shower). The value of skin temperature assessment in sleep research is that the endogenous skin warming resulting from increased skin blood flow is functionally linked to sleep propensity. From the collected data, the mesor, amplitude, acrophase (time of peak temperature), Rayleight test (an index of interdaily stability), mean waveforms are calculated.);
Circadian rhythm of skin temperature was evaluable in 12 patients (i.e., those who had recordings that extended from baseline through washout). Circadian system functionality was evaluated by continuously monitoring wrist skin temperature using a temperature sensor (Thermochron iButton DS1921H; Maxim, Dallas, Tex.) (Sarabia et al. 2008). A nonparametric analysis was performed for each participant to characterize DST as previously described (Sarabia et al. 2008; Ortiz-Tudela et al. 2010).
Briefly, this analysis includes the following parameters: (i) the inter-daily stability (the constancy of 24-hour rhythmic pattern over days, IS); (ii) intra-daily variability (rhythm fragmentation, IV); (iii) average of 10-minute intervals for the 10 hours with the minimum temperature (L10); (iv) average of 10-minute intervals for the 5 hours with the maximum temperature (M5) and the relative amplitude (RA), which was determined by the difference between M5 and L10, divided by the sum of both. Finally, the Circadian Function Index (CFI) was calculated by integrating IS, IV, and RA. […]

For data set [5], the system named is patients with PD and constipation. Put plainly: Adverse events, Stage 1. It is filed as in vivo, human. Particulars: Stage 1, 10 dosed. An excerpt:
Tolerability limits included diarrhea or vomiting.

For data set [6] the following is noted: following systemic administration, in mice; cited from earlier work.
A short description of data set [7]: Pharmacokinetics of orally administered squalamine (ENT-01) in Stage 1. It is filed as in vivo. The following applies: human, this study. As to the method:
PK data were collected on the 10 patients enrolled in Stage 1 and 10 patients enrolled in Stage 2 to determine the extent of systemic absorption. In Stage 1, PK data were obtained at each visit, pre-medication, at 1, 2, 4, 8 and 24 hours (Table 10). In Stage 2, PK was measured on days 1 and 6 of the randomization period pre-medication, at 1, 2, 4 and 8 hours (Table 11).
The mean Cmax, Tmax and T1/2 and AUC of the squalamine ion following squalamine (ENT-01) oral dosing for Stage 1 patients. The PK analyses are only approximate, as the lower limit of the validated concentration range was 10 ng/ml; most of the measured concentrations fell below that value. The mean Cmax, Tmax and T1/2 and AUC of the squalamine ion following squalamine (ENT-01) oral dosing for Stage 2 patients. The PK analyses are only approximate, as the lower limit of the validated concentration range was 0.5 ng/ml.

In data set [8] the test system is mouse models of PD. The following applies: oral; mice with constipation due to overexpression of human αS (West et al, manuscript in preparation); cited from earlier work.
Data set [9] deals with IPANs (intrinsic primary afferent neuron). Particulars: isolated bowel segment, PD mouse model, luminal perfusion; cited from earlier work.

`CC(C)[C@@H](CC[C@@H](C)[C@H]1CC[C@H]2[C@@H]3[C@H](O)C[C@H]4C[C@@H](NCCCNCCCCN)CC[C@]4(C)[C@H]3CC[C@]12C)OS(=O)(=O)O` (single isomer, unassigned) [squalamine (ENT-01), squalamine]: in data set [1], the “patients who withdrew during dosing because of diarrhea” value turned out to be 2. Besides, in data set [2] (Stage 2, daily dosing, at 250 mg (range 75-250 mg)), the “response rate (CSBM within 24 hours of dosing on at least 2 of 3 days)” value was determined as 85%. Moreover, the “SBM, weekly average” value in data set [2] (Stage 2, fixed dose, mean (SD), n = 34, baseline 2.6 (1.45)) is given as 4.5 (2.21) /week. Further, the “patients in whom hallucinations and delusions improved or disappeared” value in [3] is on record as 5 of 6. Moreover, the “circadian rhythm of wrist skin temperature (IS, IV, RA, CFI)” value in data set [4] is reported as “significant positive impact”. The “circadian rhythm of wrist skin temperature (IS, IV, RA, CFI)” value in data set [4] (listed as ENT-01) is “improved all markers of healthy circadian function”. The “circadian rhythm parameters (IS, CFI)” value in [4] (wash-out period vs baseline) is on record as “improvement persisted for several of these circadian parameters”. Also, in data set [5], the “Abdominal pain, Mild” value is 2 (20) n; the “Abdominal pain, Moderate” value is on record as 3 (30) n; the “Blood in urine, Moderate” value was determined as 0 n; the “Diarrhea, Mild” value is 1 (10) n. In [5], the “Diarrhea, Moderate” value is 3 (30) n; the “Diarrhea, Severe” value was determined as 0 n; the “Difficulty falling asleep, Mild” value came out at 0 n; the “Difficulty falling asleep, Moderate” value came out at 0 n. In data set [5], the “Dizziness, Mild” value was determined as 0 n; the “Dizziness, Moderate” value is 0 n; the “Eye infection, Mild” value is 0 n; the “Eye infection, Moderate” value was 0 n. Moreover, in [5], the “Flatulence, Mild” value is reported as 2 (20) n; the “Flatulence, Moderate” value was 0 n; the “Headache, Mild” value is reported as 1 (10) n; the “Headache, Moderate” value came to 0 n. Also, in [5], the “Increased urinary frequency, Mild” value amounted to 0 n; the “Increased urinary frequency, Moderate” value turned out to be 0 n; the “Loss of appetite, Moderate” value is 0 n; the “Lower GI bleed, Severe” value is reported as 0 n. Further, in [5], the “Nausea, Mild” value is recorded as 4 (40) n; the “Nausea, Moderate” value is recorded as 0 n; the “Skin lesions-rash, Mild” value was found to be 0 n; the “Skin lesions-rash, Moderate” value was 0 n. Further, in data set [5], the “Urinary retention, Mild” value was found to be 0 n; the “Urinary retention, Moderate” value was found to be 0 n; the “Urinary tract infection, Mild” value is on record as 0 n; the “Urinary tract infection, Moderate” value came to 0 n. In data set [5], the “Vomiting, Mild” value is listed as 1 (10) n; the “Vomiting, Moderate” value was 0 n; the “Worsening acid reflux, Mild” value is 0 n; the “Worsening acid reflux, Moderate” value came to 0 n. Also, in data set [5], the “Worsening hemorrhoid, Mild” value worked out at 0 n and the “Worsening hemorrhoid, Moderate” value is 0 n. Also, in [5] (unrelated to ENT-01), the “Blood in urine, Mild” value is recorded as 1 (10) n and the “Loss of appetite, Mild” value is 1 (10) n.

For `CC(C)[C@@H](CC[C@@H](C)[C@H]1CC[C@H]2[C@@H]3[C@H](O)C[C@H]4C[C@@H](NCCCNCCCCN)CC[C@]4(C)[C@H]3CC[C@]12C)OS(=O)(=O)O` [squalamine], the clearance and excretion entry in [6] is “cleared by the liver and excreted as the intact molecule”. In [7], the “systemic absorption following oral administration” value is reported as “not significantly absorbed into the systemic circulation”. Further, the gastro-intestinal motility result in data set [8] is listed as “stimulates gastro-intestinal motility”. Moreover, in [9], the “effect on IPANs” value was “excitation of IPANs”.

These data come from patent US20200038419A1, “METHODS OF TREATING MULTIPLE SYSTEM ATROPHY USING AMINOSTEROL COMPOSITIONS” (Enterin, Inc., priority 2018, published 2020).
